# Patent US20080026074A1, “Method of short term skin wrinkles correction using strontium divalent ion” (priority 2006, published 2008)
# Experiments:
# photoaged skin = assay: topical application of strontium ion in a carrier to skin; type: in vivo; settings: carrier e.g. distillate of orange flower petals (neroli floral water), within minutes of application
# Method: The epidermal ridges are less pronounced, an effect that may be related to relaxation of erector muscles.
# This effect lasted for about 4 hours.
# [1] = taken orally, long term use; cited from earlier work
compound,measurement,setting,value
[Sr+2] [strontium ion],effect on skin texture,photoaged skin,"changes the texture of photoaged skin, resulting in a more youthful complexion"
same,toxicity,[1],toxicity is not a problem
